{"source": "patent US20210322545A1", "about": "(priority 2016, published 2021)", "conditions": "mouse, in vivo", "data": [{"molecule": "CN[C@@H](C)C(=O)N[C@H](C(=O)N1CCC[C@H]1c1nc(C(=O)c2ccc(F)cc2)cs1)C1CCCCC1", "note": "[LCL161]", "values": [{"measurement": "body weight in combination treatment cohort", "result": "fully recovered following the last treatment"}]}]}
